Source: PubChem BioAssay AID2060899 (Molecular Pharmacology Branch, DTP, NCI, 2025)

Tested on: 565726-208-R1-J5-PDC complex spheroids, growth inhibition
Test: Anticancer human tumor 565726-208-R1-J5-PDC patient-derived pancreatic adenocarcinoma cell line growth inhibition [RAS]
Settings: for viability, T/C: stronger effect = lower value; active = viability on the fitted dose curve at most 10% of control; inactive = the rest
Summary of the method: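 Agents were tested in combination matrices in half-log decrements from a top concentration at or near clinical Cmax (10 microM if undetermined). Targets were multi-cell spheroids of tumour lines plus HUVEC and MSC stromal cells.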

[1] = curve of first compound, second compound 0.000949 µM
[2] = curve of first compound, second compound 0.003 µM
[3] = curve of first compound, second compound 0.00949 µM
[4] = curve of first compound, second compound 0.03 µM
[5] = curve of first compound, second compound 0.0949 µM
[6] = curve of first compound, second compound 0.3 µM
[7] = second compound 0.000949 µM, first compound 0.0316 µM
[8] = second compound 0.000949 µM, first compound 0.1 µM
[9] = second compound 0.000949 µM, first compound 0.316 µM
[10] = second compound 0.000949 µM, first compound 1 µM
[11] = second compound 0.000949 µM, first compound 3.16 µM
[12] = second compound 0.000949 µM, first compound 10 µM
[13] = second compound 0.003 µM, first compound 0.0316 µM
[14] = second compound 0.003 µM, first compound 0.1 µM
[15] = second compound 0.003 µM, first compound 0.316 µM
[16] = second compound 0.003 µM, first compound 1 µM
[17] = second compound 0.003 µM, first compound 3.16 µM
[18] = second compound 0.003 µM, first compound 10 µM
[19] = second compound 0.00949 µM, first compound 0.0316 µM
[20] = second compound 0.00949 µM, first compound 0.1 µM
[21] = second compound 0.00949 µM, first compound 0.316 µM
[22] = second compound 0.00949 µM, first compound 1 µM
[23] = second compound 0.00949 µM, first compound 3.16 µM
[24] = second compound 0.00949 µM, first compound 10 µM
[25] = second compound 0.03 µM, first compound 0.0316 µM
[26] = second compound 0.03 µM, first compound 0.1 µM
[27] = second compound 0.03 µM, first compound 0.316 µM
[28] = second compound 0.03 µM, first compound 1 µM
[29] = second compound 0.03 µM, first compound 3.16 µM
[30] = second compound 0.03 µM, first compound 10 µM
[31] = second compound 0.0949 µM, first compound 0.0316 µM
[32] = second compound 0.0949 µM, first compound 0.1 µM
[33] = second compound 0.0949 µM, first compound 0.316 µM
[34] = second compound 0.0949 µM, first compound 1 µM
[35] = second compound 0.0949 µM, first compound 3.16 µM
[36] = second compound 0.0949 µM, first compound 10 µM
[37] = second compound 0.3 µM, first compound 0.0316 µM
[38] = second compound 0.3 µM, first compound 0.1 µM
[39] = second compound 0.3 µM, first compound 0.316 µM
[40] = second compound 0.3 µM, first compound 1 µM
[41] = second compound 0.3 µM, first compound 3.16 µM
[42] = second compound 0.3 µM, first compound 10 µM
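Also: spheroids exposed to compounds for seven days before readout.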
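For viability, T/C in this document: 100% = DMSO vehicle control viability.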

NC1c2ccccc2OC12CCN(c1cnc3c(N4CCCc5ncccc54)n[nH]c3n1)CC2 (stereo not drawn) + CCn1c(-c2cccnc2C(C)OC)c2c3cc(ccc31)N1CCOC(CC(NC(=O)C(C(C)C)N(C)C(=O)C3(F)CCN(C(=O)C#CC(C)(C)N(C)C)CC3)C(=O)N3CCCC(N3)C(=O)OCC(C)(C)C2)C1
8.09 µM: IC50 [6]
> 10 µM: IC50 [1] | IC50 [2] | IC50 [3] | IC50 [4] | IC50 [5]
inactive: viability, T/C [7] 82.5% | viability, T/C [8] 77.5% | viability, T/C [9] 72.6% | viability, T/C [10] 60.9% | viability, T/C [11] 65.7% | viability, T/C [12] 56.9% | viability, T/C [13] 82.6% | viability, T/C [14] 76.8% | viability, T/C [15] 70% | viability, T/C [16] 65% | viability, T/C [17] 62.9% | viability, T/C [18] 60.5% | viability, T/C [19] 76.3% | viability, T/C [20] 85.5% | viability, T/C [21] 70% | viability, T/C [22] 65% | viability, T/C [23] 64.8% | viability, T/C [24] 55.5% | viability, T/C [25] 85.4% | viability, T/C [26] 76.3% | viability, T/C [27] 73.4% | viability, T/C [28] 62.7% | viability, T/C [29] 58.8% | viability, T/C [30] 58.5% | viability, T/C [31] 78.8% | viability, T/C [32] 75.6% | viability, T/C [33] 71.5% | viability, T/C [34] 65% | viability, T/C [35] 58.5% | viability, T/C [36] 57% | viability, T/C [37] 72.8% | viability, T/C [38] 68.2% | viability, T/C [39] 68.8% | viability, T/C [40] 59.5% | viability, T/C [41] 54.2% | viability, T/C [42] 49.5%

CCC(CC)c1cc(NC2CCC(N)C2)n2nccc2n1 (stereo not drawn) + C#Cc1c(F)ccc2cc(O)cc(-c3ncc4c(N5CC6CCC(C5)N6)nc(OCC56CCCN5CC(F)C6)nc4c3F)c12
1.03 µM: IC50 (curve of first compound, second compound 1 µM)
1.46 µM: IC50 (curve of first compound, second compound 0.0316 µM)
1.36 µM: IC50 (curve of first compound, second compound 0.316 µM)
0.426 µM: IC50 (curve of first compound, second compound 10 µM)
1.25 µM: IC50 (curve of first compound, second compound 0.1 µM)
active: viability, T/C (second compound 0.0316 µM, first compound 3.16 µM) 1.28% | viability, T/C (second compound 0.0316 µM, first compound 10 µM) 1.5% | viability, T/C (second compound 0.1 µM, first compound 10 µM) 1.87% | viability, T/C (second compound 0.316 µM, first compound 10 µM) 1.94% | viability, T/C (second compound 1 µM, first compound 10 µM) 1.4% | viability, T/C (second compound 3.16 µM, first compound 3.16 µM) 0.63% | viability, T/C (second compound 3.16 µM, first compound 10 µM) 1.4% | viability, T/C (second compound 10 µM, first compound 3.16 µM) 0.25% | viability, T/C (second compound 10 µM, first compound 10 µM) 0.31%
0.665 µM: IC50 (curve of first compound, second compound 3.16 µM)
inactive: viability, T/C (second compound 0.0316 µM, first compound 0.0316 µM) 111% | viability, T/C (second compound 0.0316 µM, first compound 0.1 µM) 163% | viability, T/C (second compound 0.0316 µM, first compound 0.316 µM) 113% | viability, T/C (second compound 0.0316 µM, first compound 1 µM) 74.5% | viability, T/C (second compound 0.1 µM, first compound 0.0316 µM) 132% | viability, T/C (second compound 0.1 µM, first compound 0.1 µM) 138% | viability, T/C (second compound 0.1 µM, first compound 0.316 µM) 96.9% | viability, T/C (second compound 0.1 µM, first compound 1 µM) 70.2% | viability, T/C (second compound 0.1 µM, first compound 3.16 µM) 1.11% | viability, T/C (second compound 0.316 µM, first compound 0.0316 µM) 133% | viability, T/C (second compound 0.316 µM, first compound 0.1 µM) 135% | viability, T/C (second compound 0.316 µM, first compound 0.316 µM) 103% | viability, T/C (second compound 0.316 µM, first compound 1 µM) 73.3% | viability, T/C (second compound 0.316 µM, first compound 3.16 µM) 1% | viability, T/C (second compound 1 µM, first compound 0.0316 µM) 141% | viability, T/C (second compound 1 µM, first compound 0.1 µM) 123% | viability, T/C (second compound 1 µM, first compound 0.316 µM) 98.8% | viability, T/C (second compound 1 µM, first compound 1 µM) 58.1% | viability, T/C (second compound 1 µM, first compound 3.16 µM) 0.9% | viability, T/C (second compound 3.16 µM, first compound 0.0316 µM) 110% | viability, T/C (second compound 3.16 µM, first compound 0.1 µM) 106% | viability, T/C (second compound 3.16 µM, first compound 0.316 µM) 67.4% | viability, T/C (second compound 3.16 µM, first compound 1 µM) 44.9% | viability, T/C (second compound 10 µM, first compound 0.0316 µM) 92.3% | viability, T/C (second compound 10 µM, first compound 0.1 µM) 83.5% | viability, T/C (second compound 10 µM, first compound 0.316 µM) 51.5% | viability, T/C (second compound 10 µM, first compound 1 µM) 37.1%

CC(=O)OC12COC1CC(O)C1(C)C(=O)C(O)C3=C(C)C(OC(=O)C(O)C(NC(=O)OC(C)(C)C)c4ccccc4)CC(O)(C(OC(=O)c4ccccc4)C21)C3(C)C (stereo not drawn)
< 0.0316 µM: IC50 (curve of compound)
inactive: viability, T/C (compound 0.0316 µM) 20.4% [middle of 4 runs] | viability, T/C (compound 0.1 µM) 20.9% [middle of 4 runs] | viability, T/C (compound 0.316 µM) 19.3% [middle of 4 runs] | viability, T/C (compound 1 µM) 19.9% [middle of 4 runs] | viability, T/C (compound 3.16 µM) 24.2% [middle of 4 runs] | viability, T/C (compound 10 µM) 27% [middle of 4 runs]

CC(C)NCC(C(=O)N1CCN(c2ncnc3c2C(C)CC3O)CC1)c1ccc(Cl)cc1 (stereo not drawn) + CCn1c(-c2cccnc2C(C)OC)c2c3cc(ccc31)N1CCOC(CC(NC(=O)C(C(C)C)N(C)C(=O)C3(F)CCN(C(=O)C#CC(C)(C)N(C)C)CC3)C(=O)N3CCCC(N3)C(=O)OCC(C)(C)C2)C1
> 10 µM: IC50 [1] | IC50 [2] | IC50 [3] | IC50 [4] | IC50 [5]
inactive: viability, T/C [7] 106% | viability, T/C [8] 94.1% | viability, T/C [9] 97.6% | viability, T/C [10] 85.1% | viability, T/C [11] 74% | viability, T/C [12] 56.6% | viability, T/C [13] 105% | viability, T/C [14] 99.2% | viability, T/C [15] 105% | viability, T/C [16] 94.7% | viability, T/C [17] 84.2% | viability, T/C [18] 59.4% | viability, T/C [19] 96% | viability, T/C [20] 104% | viability, T/C [21] 94.3% | viability, T/C [22] 99.8% | viability, T/C [23] 88.1% | viability, T/C [24] 57.1% | viability, T/C [25] 101% | viability, T/C [26] 95.5% | viability, T/C [27] 106% | viability, T/C [28] 89.4% | viability, T/C [29] 84.4% | viability, T/C [30] 56.5% | viability, T/C [31] 93.5% | viability, T/C [32] 98.8% | viability, T/C [33] 96.9% | viability, T/C [34] 86.5% | viability, T/C [35] 85.5% | viability, T/C [36] 57.7% | viability, T/C [37] 95.2% | viability, T/C [38] 87% | viability, T/C [39] 85.8% | viability, T/C [40] 80.8% | viability, T/C [41] 70.7% | viability, T/C [42] 43.2%
7.56 µM: IC50 [6]
